Measured values: PMC6493773, “Structure and mechanism of TagA, a novel membrane-associated glycosyltransferase that produces wall teichoic acids in pathogenic bacteria” (PLoS Pathogens, 2019)

Key:
[1] = target: T1, full-length TagA from T. italicus (UniProt D3T4E0); assay: anion-exchange HPLC of UDP formation, […] nm; format: biochemical, Thermoanaerobacter thermocopriae; settings: 200 nM enzyme; UDP-ManNAc made in situ from 100 μM UDP-GlcNAc by MnaA; 100 μM lipid-α analog; pH 7.5, 250 mM NaCl, 30°C
T1 construct: gene Thit_1850; full-length (195 + 49 C-terminal residues); purification details only in supplement

[2] = target: T2, full-length TagA from S. aureus (Staphylococcus aureus, UniProt Q7A714); assay: anion-exchange HPLC of UDP formation, […] nm; format: biochemical; settings: 200 nM enzyme; UDP-ManNAc made in situ from 100 μM UDP-GlcNAc by MnaA; 100 μM lipid-α analog; pH 7.5, 250 mM NaCl, 30°C
T2 construct: gene tarA; full-length; strain and plasmid only in supplement
T2 sequence (Q7A714 whole entry): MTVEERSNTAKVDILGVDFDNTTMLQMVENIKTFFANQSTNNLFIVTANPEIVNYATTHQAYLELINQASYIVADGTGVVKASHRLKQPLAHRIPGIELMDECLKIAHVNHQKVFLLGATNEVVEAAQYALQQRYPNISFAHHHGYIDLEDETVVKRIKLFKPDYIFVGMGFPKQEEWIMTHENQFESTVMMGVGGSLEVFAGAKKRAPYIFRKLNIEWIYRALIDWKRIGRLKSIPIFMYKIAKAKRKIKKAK

T1 sequence (D3T4E0 entry or part of it): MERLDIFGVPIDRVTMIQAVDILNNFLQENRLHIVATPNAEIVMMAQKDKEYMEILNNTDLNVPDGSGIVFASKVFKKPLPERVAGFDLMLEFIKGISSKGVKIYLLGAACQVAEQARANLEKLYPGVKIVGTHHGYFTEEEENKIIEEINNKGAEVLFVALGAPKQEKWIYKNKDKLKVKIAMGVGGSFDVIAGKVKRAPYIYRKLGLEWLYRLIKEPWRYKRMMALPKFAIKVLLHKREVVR

| Structure (SMILES) | anion-exchange HPLC of UDP formation, 271 nm [1] | anion-exchange HPLC of UDP formation, 271 nm [2] |
| --- | --- | --- |
| CC(=O)N[C@@H]1[C@@H](OP(=O)(O)OP(=O)(O)OC[C@H]2O[C@@H](n3ccc(=O)[nH]c3=O)[C@H](O)[C@@H]2O)O[C@H](CO)[C@@H](O)[C@@H]1O [UDP-ManNAc] | we reconstituted its GT activity in vitro using UDP-ManNAc and a lipid-α analog | full-length TagA enzymes from T. italicus and S. aureus exhibit similar transferase activities in vitro |
| CCCCCCCCCCCCCOP(=O)(O)OP(=O)(O)O[C@H]1O[C@H](CO)[C@@H](O)[C@H](O)[C@H]1NC(C)=O [lipid-α analog] | using UDP-ManNAc and a lipid-α analog that replaces its undecaprenyl chain with tridecane | – |
